The values below come from US8883782B2, “Spiro-tetracyclic ring compounds as beta-secretase modulators and methods of use” (Amgen Inc., priority 2010, dated 2014).

Like-named read-outs stand apart in the source and are kept apart here.

Assay [1] has as its system Abeta 40 in cerebrospinal fluid (CSF) and brain. Nature of the assay: In vivo inhibition of beta-secretase (Abeta 40 reduction in CSF and brain). Conditions: rat, after 4 hrs; for inhibition in vivo at 10 mg/kg: Abeta 40, 10 mg/kg (10 mpk); for inhibition in vivo at 3 mg/kg: Abeta 40, 3 mpk. An excerpt: In Vivo Inhibition of Beta-Secretase
Several animal models, including mouse, rat, dog, and monkey, may be used to screen for inhibition of beta-secretase activity in vivo following administration of a test compound sample. Animals used in this invention can be wild type, transgenic, or gene knockout animals. […] A separate group of animals receive 2% hydroxypropyl methylcellulose, 1% Tween80 alone, containing no test compound, and serve as a vehicle-control group. At the end of the test period, animals are sacrificed and brain tissues, plasma or cerebrospinal fluid are collected. […] Homogenates are centrifuged at 355,000 g, 4° C. for 30 minutes. CSF or brain supernatants are then analyzed for the presence of A-beta peptide by specific sandwich ELISA assays based on ECL (Electrochemiluminescence) technology. For example, rat Abeta40 is measured using biotinylated-4G8 (Signet) as a capture antibody and Fab40 (an in-house antibody specific to the C-terminal of Abeta40) as a detection antibody.
Actual vehicles used: Oral: 2% HPMC, 1% Tween80, pH 2.2

Assay [2] has as its target Beta Secretase enzyme (BACE) (Homo sapiens, UniProt P56817). The assay can be described thus: In vitro enzymatic BACE FRET (fluorescence resonance energy transfer) assay. The format is biochemical. The following applies: average IC50, enzyme assay; read-out: BACE 1 FRET assay. The procedure, abridged:
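A peptide bearing a fluorophore and quencher across the cleavage site serves as substrate at 50 nM. Reactions proceed one hour in acidic acetate buffer (0.05 M, pH 4.2) containing 10% DMSO final and 100 uM genapol, then are terminated with Tris and read fluorimetrically.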

Assay [3] concerns Aβ40 in conditioned medium of cells stably expressing Amyloid Precursor Protein (APP). The assay can be described thus: In vitro BACE cell-based assay (Aβ40 in conditioned medium, sandwich ELISA). Conditions: Homo sapiens, read-out: HEK cell assay. The procedure, abridged:
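Conditioned medium from stably APP-expressing cells treated with compound dose series is assayed for Aβ40 by sandwich ELISA with time-resolved fluorescence detection. IC50 is calculated from percent inhibition of Aβ40 against compound concentration.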
On the technique in general: An ELISA detects its analyte on a solid surface through an enzyme-linked reagent.

[4] abbreviates: CSF, read-out: CSF A-beta reduction % at 10 mg/kg.
The mark [5] stands for this setting: brain, read-out: Brain A-beta reduction % at 10 mg/kg.
[6] abbreviates: HEK293, average IC50, HEK cells.
[7] abbreviates: CSF, read-out: CSF A-beta reduction % at 3 mpk.
The mark [8] stands for this setting: brain, read-out: Brain A-beta reduction % at 3 mpk.

Sequence of Beta Secretase enzyme (BACE) (P56817 46-501, species assumed): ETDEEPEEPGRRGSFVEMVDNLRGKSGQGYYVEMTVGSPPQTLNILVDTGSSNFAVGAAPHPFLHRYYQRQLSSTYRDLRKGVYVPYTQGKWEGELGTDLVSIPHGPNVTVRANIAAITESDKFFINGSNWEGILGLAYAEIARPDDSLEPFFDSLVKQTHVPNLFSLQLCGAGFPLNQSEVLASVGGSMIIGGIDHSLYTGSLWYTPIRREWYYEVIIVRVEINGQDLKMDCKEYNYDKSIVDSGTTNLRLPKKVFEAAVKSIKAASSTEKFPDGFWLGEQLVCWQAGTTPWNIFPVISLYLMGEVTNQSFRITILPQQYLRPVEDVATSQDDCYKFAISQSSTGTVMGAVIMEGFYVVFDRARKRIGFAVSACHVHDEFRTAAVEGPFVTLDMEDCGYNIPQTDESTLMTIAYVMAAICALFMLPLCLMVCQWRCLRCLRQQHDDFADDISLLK

`CC1(C)C=C(c2ccc3c(c2)[C@]2(COC(N)=N2)c2cc(-c4cncnc4)c(F)cc2O3)CCO1` [Example 508, (R)-7′-(6,6-dimethyl-3,6-dihydro-2H-pyran-4-yl)-3′-fluoro-2′-(pyrimidin-5-yl)-5H-spiro[oxazole-4,9′-xanthen]-2-amine]: the inhibition in vivo at 10 mg/kg in assay [1] (setting [4]) was determined as 49%; in assay [1] (setting [5]) it was 25%. The IC50 in assay [2] worked out at 3.7 nM; in assay [3] (setting [6]), 14.4 nM.
As to `COc1nc(-c2ccnc(F)c2)cc2c1Oc1ccc(-c3cccnc3)cc1[C@@]21COC(N)=N1` [Example 839, (S)-3-(2-fluoropyridin-4-yl)-1-methoxy-7-(pyridin-3-yl)-5′H-spiro[chromeno[2,3-c]pyridine-5,4′-oxazol]-2′-amine], the inhibition in vivo at 10 mg/kg in assay [1] (setting [4]) stood at 37%; in assay [1] (setting [5]), 23%. The IC50 turned out to be 2.1 nM in assay [2] and 11 nM in assay [3] (HEK293, average IC50).
On to `NC1=N[C@@]2(CO1)c1cc(-c3cncc(F)c3)ccc1Oc1c2cc(N2CCOCC2)nc1F` [Example 893, (5S)-1-fluoro-7-(5-fluoro-3-pyridinyl)-3-(4-morpholinyl)spiro[chromeno[2,3-c]pyridine-5,4′-[1,3]oxazol]-2′-amine], for which the inhibition in vivo at 10 mg/kg amounted to 76% in assay [1] (setting [4]) and 70% in assay [1] (setting [5]). Besides, the IC50 amounted to 0.3 nM in assay [2] and 7 nM in assay [3] (setting [6]).
In the case of `NC1=N[C@@]2(CS1)c1cc(-c3cccnc3F)ccc1Oc1c(F)cc(-c3cccnc3)cc12` [Example 1083, (S)-4′-fluoro-7′-(2-fluoropyridin-3-yl)-2′-(pyridin-3-yl)-5H-spiro[thiazole-4,9′-xanthen]-2-amine], the inhibition in vivo at 10 mg/kg in assay [1] (setting [4]) came out at 66%; in assay [1] (setting [5]), 53%. Further, the IC50 was 1.2 nM in assay [2] and 18 nM in assay [3] (HEK293, average IC50).
With `NC1=N[C@@]2(CS1)c1cc(-c3cccnc3F)ccc1Oc1c(F)cc(N3CCC(F)(F)CC3)cc12` [Example 1076, (S)-2′-(4,4-difluoropiperidin-1-yl)-4′-fluoro-7′-(2-fluoropyridin-3-yl)-5H-spiro[thiazole-4,9′-xanthen]-2-amine], the inhibition in vivo at 10 mg/kg in assay [1] (setting [4]) is 63%; in assay [1] (setting [5]), 33%. In addition, the IC50 in assay [2] came to 0.4 nM; in assay [3] (HEK293, average IC50) it was 14 nM.
`CC(C)(C#N)COc1cc(F)c2c(c1)[C@]1(COC(N)=N1)c1cc(-c3cccnc3)c(F)cc1O2` [Example 860, (S)-3-(2-amino-3′,5′-difluoro-2′-(pyridin-3-yl)-5H-spiro[oxazole-4,9′-xanthene]-7′-yloxy)-2,2-dimethylpropanenitrile]: the inhibition in vivo at 10 mg/kg in assay [1] (setting [4]) worked out at 0%; in assay [1] (setting [5]), 2%. Moreover, the IC50 was found to be 0.7 nM in assay [2] and 10 nM in assay [3] (setting [6]).
On the same counts, the results for `NC1=N[C@@]2(CO1)c1cc(-c3cncc(F)c3)ccc1Oc1c2cc(N2CCC(F)(F)CC2)nc1F` [Example 927, (S)-3-(4,4-difluoropiperidin-1-yl)-1-fluoro-7-(5-fluoropyridin-3-yl)-5′-H-spiro[chromeno[2,3-c]pyridine-5,4′-oxazol]-2′-amine] are 70%, 65%, 0.3 nM and 10 nM.
As for `NC1=N[C@@]2(CO1)c1cc(-c3cccnc3F)c(F)cc1Oc1c(F)cc(N3CCOCC3)cc12` (single isomer, unassigned) [Example 869], the inhibition in vivo at 10 mg/kg in assay [1] (setting [4]) worked out at 61%; in assay [1] (setting [5]), 44%. Besides, the values for the IC50 in assay [2] and in assay [3] (setting [6]) were 0.5 nM and 10 nM, respectively.
In the case of `CC#Cc1cncc(-c2ccc3c(c2)[C@@]2(COC(N)=N2)c2cc(C#CC(C)(C)O)cc(F)c2O3)c1` [Example 951, (S)-4-(2-amino-5′-fluoro-2′-(5-(prop-1-ynyl)pyridin-3-yl)-5H-spiro[oxazole-4,9′-xanthene]-7′-yl)-2-methylbut-3-yn-2-ol], the figures for the inhibition in vivo at 3 mg/kg in assay [1] (setting [7]) and in assay [1] (setting [8]) were 17% and 13%, respectively. For the same compound, the IC50 in assay [2] is 0.6 nM; in assay [3] (setting [6]) it was 4 nM.
Regarding `NC1=N[C@@]2(CS1)c1cc(-c3cccnc3F)ccc1Oc1c(F)cc(-c3ncccn3)cc12` [Example 1079, (S)-4′-fluoro-7′-(2-fluoropyridin-3-yl)-2′-(pyrimidin-2-yl)-5H-spiro[thiazole-4,9′-xanthen]-2-amine], the inhibition in vivo at 10 mg/kg in assay [1] (setting [4]) turned out to be 67%; in assay [1] (setting [5]), 54%. The IC50 in assay [2] was found to be 0.4 nM; in assay [3] (HEK293, average IC50), 12 nM.
`NC1=N[C@@]2(CS1)c1cc(-c3cccnc3F)ccc1Oc1c(F)cc(C3=CCCOC3)cc12` [Example 802, (S)-2′-(5,6-dihydro-2H-pyran-3-yl)-4′-fluoro-7′-(2-fluoropyridin-3-yl)-5H-spiro[thiazole-4,9′-xanthen]-2-amine]: the inhibition in vivo at 10 mg/kg amounted to 69% in assay [1] (setting [4]) and 57% in assay [1] (setting [5]). Also, the IC50 in assay [2] came to 0.2 nM; in assay [3] (HEK293, average IC50), 12 nM.
As to `CC1(C)C=C(c2cc3c(cn2)Oc2ccc(-c4cncc(F)c4)cc2[C@@]32COC(N)=N2)CCO1` [Example 135, (S)-3-(6,6-dimethyl-3,6-dihydro-2H-pyran-4-yl)-7-(5-fluoropyridin-3-yl)-5′H-spiro[chromeno[2,3-c]pyridine-5,4′-oxazol]-2′-amine], the inhibition in vivo at 10 mg/kg in assay [1] (setting [4]) is 61%; in assay [1] (setting [5]), 44%. For the same compound, the IC50 was found to be 1.3 nM in assay [2] and 10 nM in assay [3] (HEK293, average IC50).
In the case of `NC1=N[C@@]2(CO1)c1cc(-c3cncc(F)c3)ccc1Oc1cnc(N3CCC(F)(F)CC3)cc12` [Example 414, (5S)-3-(4,4-difluoro-1-piperidinyl)-7-(5-fluoro-3-pyridinyl)spiro[chromeno[2,3-c]pyridine-5,4′-[1,3]oxazol]-2′-amine], the inhibition in vivo at 10 mg/kg in assay [1] (setting [4]) was determined as 64%; in assay [1] (setting [5]), 44%. Moreover, the figures for the IC50 in assay [2] and in assay [3] (setting [6]) were 1.5 nM and 13.6 nM, respectively.
Take `CC#Cc1cncc(-c2ccc3c(c2)[C@@]2(COC(N)=N2)c2cc(-c4cnn(C)c4)cc(F)c2O3)c1` [Example 947, (S)-4′-fluoro-2′-(1-methyl-1H-pyrazol-4-yl)-7′-(5-(prop-1-ynyl)pyridin-3-yl)-5H-spiro[oxazole-4,9′-xanthen]-2-amine]: the inhibition in vivo at 3 mg/kg in assay [1] (setting [7]) was 22%; in assay [1] (setting [8]), 25%. Further, the IC50 in assay [2] is 0.4 nM; in assay [3] (setting [6]) it was 4 nM.
On the same counts, the results for `NC1=N[C@@]2(CO1)c1cc(-c3cncc(F)c3)ccc1Oc1c2cc(N2CCC(F)(F)C2)nc1F` [Example 922, (S)-3-(3,3-difluoropyrrolidin-1-yl)-1-fluoro-7-(5-fluoropyridin-3-yl)-5′-H-spiro[chromeno[2,3-c]pyridine-5,4′-oxazol]-2′-amine] are 69%, 57%, 0.4 nM and 9 nM.
In the case of `NC1=N[C@@]2(CS1)c1cc(-c3cccnc3F)ccc1Oc1c2cc(-c2ccnc(F)c2)nc1F` (single isomer, unassigned) [Example 996], the inhibition in vivo at 10 mg/kg in assay [1] (setting [4]) was determined as 55%; in assay [1] (setting [5]) it was 43%. For the same compound, the IC50 in assay [2] was determined as 0.2 nM; in assay [3] (HEK293, average IC50), 13 nM.
In the case of `CC1(C#Cc2cnc3c(c2)[C@]2(COC(N)=N2)c2cc(-c4cccc(Cl)c4F)ccc2O3)COC1` [Example 463, (S)-7-(3-chloro-2-fluorophenyl)-3-((3-methyloxetan-3-yl)ethynyl)-5′H-spiro[chromeno[2,3-b]pyridine-5,4′-oxazol]-2′-amine], the values for the inhibition in vivo at 10 mg/kg in assay [1] (setting [4]) and in assay [1] (setting [5]) were 30% and 9%, respectively. Besides, the IC50 in assay [2] amounted to 0.8 nM; in assay [3] (setting [6]) it was 14.3 nM.
For `NC1=N[C@@]2(CS1)c1cc(-c3cccnc3F)ccc1Oc1ncc(C3=CCCOC3)cc12` [Example 672, (5S)-3-(5,6-dihydro-2H-pyran-3-yl)-7-(2-fluoro-3-pyridinyl)spiro[chromeno[2,3-b]pyridine-5,4′-[1,3]thiazol]-2′-amine] the same measures were 64%, 47%, 0.7 nM and 10 nM.
For `CC1(C#Cc2cnc3c(c2)[C@]2(COC(N)=N2)c2cc(-c4cccc(C#N)c4)ccc2O3)COC1` [Example 127, (S)-3-(2′-amino-3-((3-methyloxetan-3-yl)ethynyl)-5′H-spiro[chromeno[2,3-b]pyridine-5,4′-oxazole]-7-yl)benzonitrile], the results for the inhibition in vivo at 10 mg/kg in assay [1] (setting [4]) and in assay [1] (setting [5]) were 61% and 45%, respectively. Moreover, the IC50 in assay [2] came to 1.1 nM; in assay [3] (HEK293, average IC50), 5 nM.
